From paper PMC9230136 (Pharmaceutics, 2022)
Like-named read-outs stand apart in the source and are kept apart here. Each block holds one compound with its values, some of them ahead of it.

Legend:
PBL stimulated with PHA = test: Cytotoxicity in human PBLs stimulated with PHA; format: cell-based; settings: 72 h, read-out: IC50 PBLPHA
From the text: (§1) Human PBLs were obtained from healthy donors by separation on a Lymphoprep^TM (Serumwerk Bernburg AG) gradient and were used for the evaluation of the cytotoxic potential of compounds under study in normal human cells. Buffy coats were obtained from the Blood Transfusion Service, Azienda Ospedaliera of Padova and provided at this institution for research purposes without identifier. The samples were not obtained specifically for this study, and for this reason ethical approval was not required. Informed consent was obtained from blood donors according to Italian law no. 219 (21 October 2005). Data were treated by the Blood Transfusion Service according to Italian law on personal data management “Codice in materia di protezione dati personali” (Testo Unico D.L. Giugno 30, 2003 196).
(§2) After extensive washing with saline solution (BioConcept, Hank’s Buffered Saline Solution), quiescent PBLs were resuspended (1.0 × 10^6 cells/mL) in RPMI-1640 medium supplemented with 10% fetal bovine serum. Cytotoxicity evaluations were conducted also in cultures of proliferating PBLs, stimulated with […] PHA (Irvine Scientific). Both resting and proliferating lymphocytes were seeded in 96-well plates and maintained overnight at 37 °C in a humidified 5% CO2 incubator. Serial (5-fold) dilutions of the tested compounds were added, and viability was determined 72 h later by the resazurin viability assay as described above.

Zebrafish embryos = test: Acute toxicity assessment in zebrafish embryos; format: in vivo, Danio rerio; settings: 100 nM
Procedure: Zebrafish embryos at 72 h post fertilization (hpf) were selected for the acute toxicity assay since, at that time, morphogenesis and function of the primary organ systems are complete. Embryos at 72 hpf were assayed in a 12-well plate, 20 larvae/well for each experimental condition.
The zebrafish embryos were treated as described in the Biological Results and Discussion section using drug concentrations selected on the basis of in vitro experimental data. The drugs were added directly to the fish water from 10 mM stock solutions in DMSO of tested compounds. […] CA-4P was employed as the reference compound.
The experiment was carried out at a constant temperature (28.5 °C) in the dark, and at 24 and 48 h time points, zebrafish were subjected to visual observation and image acquisition under a stereomicroscope (Nikon SMZ745T; Nikon, Japan). The number of dead zebrafish embryos for each condition was recorded, and morphological defects were evaluated. The survival rate (%) after treatment was calculated.

[1] = test system: A549, MDA-MB-231, HeLa, HT-29 and Jurkat cancer cell lines; test: Antiproliferative activity over the panel of cancer cell lines; format: cell-based, human
Procedure: Colon adenocarcinoma (HT-29) and T-cell leukemia (Jurkat) cells were grown in RPMI-1640 medium (Gibco, Milano, Italy). Promyelocytic leukemia cells (HL-60), non-small cell lung carcinoma (A549), cervix carcinoma (HeLa) and breast adenocarcinoma (MDA-MB-231) cells were grown in DMEM medium (Gibco, Milano, Italy). Both media were supplemented with 115 units/mL of penicillin G (Gibco, Milano, Italy), 115 μg/mL of streptomycin (Invitrogen, Milano, Italy) and 10% fetal bovine serum (Invitrogen, Milano, Italy). All the cell lines used were purchased from the American Type Culture Collection (ATCC, Manassas, VA, USA). Stock solutions (10 mM) of the compounds were obtained by dissolving them in DMSO.
The cells were seeded in 96-well plates at the appropriate density for each cell line. After 24 h, the cells were treated by performing serial 5-fold dilutions of the tested compounds starting from a concentration of 10 μM. All experimental conditions were tested in triplicate for statistical analysis. The plates were incubated for 72 h at 37 °C in a humidified 5% CO2 atmosphere. At the end of the incubation period, 10 μL of 100 μg/mL resazurin solution was added to each well; then, the plate was re-incubated for 3–4 h. The fluorescence of the wells in each plate was monitored using a Spark 10 M spectrophotometer (Tecan Group Ltd., Mannedorf, Switzerland) with a 535 nm excitation wavelength and a 600 nm emission wavelength.

[2] = parameters: method as in PMID 31459105; settings: cited from earlier work
Bovine brain tubulin [3] = test: Inhibition of tubulin polymerization; format: biochemical
Procedure: (§3) Bovine brain tubulin was purified as described previously. To evaluate the effects of the compounds on tubulin assembly in vitro [35], varying concentrations were preincubated with 10 μM tubulin in 0.8 M monosodium glutamate (pH 6.6) at 30 °C and the reaction mixtures then cooled to 0 °C. After addition of GTP, the mixtures were transferred to 0 °C cuvettes in Beckman Coulter (Brea, CA, USA) DU-7400/DU-7500 recording spectrophotometers equipped with electronic temperature controllers and warmed to 30 °C, and the assembly of tubulin was observed turbidimetrically. […] Inhibition of colchicine binding to tubulin was measured as described before, except that the reaction mixtures contained 0.5 μM tubulin and 5 μM each of [^3H]colchicine and test compound. Only one DEAE-cellulose filter was used per sample, and filtration was by gravity.

quiescent PBLs = test: Cytotoxicity in human PBLs, resting; format: cell-based; settings: PBL not stimulated with PHA, 72 h, read-out: IC50 PBLresting
From the text: as §1, §2

HeLa = test: Antiproliferative assay (resazurin, 72 h); format: cell-based, human
In short: (§4)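 The highest dose is 10 μM, diluted in five-fold steps, and each condition is run in triplicate. HT-29 uses RPMI-1640 medium; MDA-MB-231, A549 and HeLa use DMEM.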

MDA-MB-231 = test: Antiproliferative assay (resazurin, 72 h); format: cell-based, human; settings: mean ± SE, 72 h
In short: as §4

Jurkat = test: Antiproliferative assay (resazurin, 72 h); format: cell-based, human
In short: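 Compounds dissolved in DMSO as 10 mM stocks were applied to seeded Jurkat cells using 5-fold serial dilutions from 10 μM, with each condition run in triplicate. Following 72 h incubation, 10 μL of 100 μg/mL resazurin was added for 3–4 h, and fluorescence was measured at 535 nm excitation and 600 nm emission.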

Bovine brain tubulin [4] = test: Inhibition of [3H]colchicine binding to tubulin; settings: tubulin 0.5 µM, [3H]colchicine 5 µM, compound 5 µM
Procedure: as §3

[5] = parameters: method as in PMID 31459105; settings: cited from earlier work; remark: listed apart in the source
HeLa cells [6] = test: ROS production (H2DCFDA); format: cell-based, human; settings: 10, 50 or 100 nM; 24 h
Procedure: (§5) The mitochondrial potential was evaluated in HeLa cells by flow cytometry using the cell membrane permeable cationic dye 5,5′,6,6′-tetrachloro-1,1′,3,3′-tetraethyl-imidacarbocyanine iodide (JC-1) (Molecular Probes) as described previously. The production of ROS was measured in HeLa cells by flow cytometry using 2′,7′-dichlorodihydrofluorescein diacetate (H2DCFDA) (Molecular Probes) as described previously.

HeLa cells [7] = test: Mitochondrial membrane potential (JC-1); format: cell-based, human; settings: Figure 8A representative plot; concentration not given
Procedure: as §5

HeLa cells [8] = test: Cell cycle analysis (PI, flow cytometry); format: cell-based, human; settings: 24 h; for cells arrested in the G2/M phase: 100 nM
Procedure: HeLa cells were seeded at 100,000 cells per well on 6-well tissue culture plates. After 24 h, cells were treated with different test compound concentrations or DMSO for another 24 h. Cells were then fixed and stained with propidium iodide (PI). The fluorescence intensity of 10,000 single-cell events was measured with a Beckman Coulter Cytomics FC500 instrument (Beckman Coulter Italia, Milano, Italy) and the data were analyzed with MultiCycle for Windows software from Phoenix Flow Systems (San Diego, CA, USA).

A549 = test: Antiproliferative assay (resazurin, 72 h); format: cell-based, human
In short: as §4

HT-29 = test: Antiproliferative assay (resazurin, 72 h); format: cell-based, human
In short: as §4

HeLa cells [9] = test: EdU cell proliferation assay; format: cell-based, human; settings: 25 or 50 nM; 24 h
Procedure: HeLa cells were seeded in a 6-well plate and, after a 24 h incubation, were treated with the desired compounds as indicated in the Biological Results and Discussion section. Cells were re-incubated for one day and then labeled with EdU (10 μM) for 3 h under cell culture conditions. Cells were harvested by centrifugation before proceeding with the fixation step using 3.7% formaldehyde. Next, permeabilization with 0.5% Triton X-100 was performed. The reaction cocktail was prepared and added to each well (100 μL/well) following the manufacturer’s instructions (EdU-Click 488, base click, Sigma-Aldrich. Milano Italy), and the plate was incubated at room temperature for 30 min in the dark. Cells were washed 2 times with phosphate-buffered saline (PBS) before reading samples with a Beckman Coulter Cytomics FC500 instrument (λex/λem = 496/516 nm).

HeLa cells [10] = test: Apoptosis by annexin-V-FITC/PI flow cytometry; format: cell-based, human
Procedure: Surface exposure of phosphatidylserine on apoptotic cells was measured by flow cytometry with a Beckman Coulter Cytomics FC500 (Beckman Coulter Italia, Milano, Italy) by adding annexin-V conjugated to fluorescein isothiocyanate (FITC) to cells according to the manufacturer’s instructions (Annexin-V Fluos, Roche Diagnostic, Monza, Italy). Simultaneously, the cells were stained with PI. Excitation was set at 488 nm, and the emission filters were at 525 and 585 nm, respectively, for FITC and PI.

[11] = tubulin at 10 μM, read-out: Tubulin Assembly IC50 ± SD

Compound: COc1ccc(/C=C\c2cc(OC)c(OC)c(OC)c2)cc1O [CA-4, combretastatin A-4, reference compound]
- IC50 (PBL stimulated with PHA; Homo sapiens): 18.6 ± 3.8 nM
- lethality (Zebrafish embryos): 100%
- Results (toxicity evaluation) (Zebrafish embryos; 72 hpf embryos): Toxic
- IC50 ([1]; Homo sapiens, against three of the five lines (not A549, HT-29), read-out: IC50's, range): 1 to 5 nM
- biological half-life [2]: short biological half-life
- IC50 (quiescent PBLs; Homo sapiens): > 10000 nM
- IC50 (HeLa; Homo sapiens, HeLa, Table 1, mean ± SE): 4 ± 1 nM
- IC50 (MDA-MB-231; Homo sapiens, MDA-MB-231, Table 1): 5 ± 2 nM
- IC50 (Jurkat; Homo sapiens, Jurkat, Table 1, mean ± SE, 72 h): 1 ± 0.2 nM
- Colchicine Binding % Inhibition ± SD (Bovine brain tubulin [4]): 97 ± 0.1%
- aqueous solubility [5]: very poor aqueous solubility

- IC50 ([1]; four of the five cell lines, read-out: IC50 values against four of the five cell lines): < 1000 nM
- IC50 (Bovine brain tubulin [3]; [11]): 380 ± 60 nM
- IC50 (HeLa; Table 1, mean ± SE): 67 ± 7 nM
- IC50 (MDA-MB-231; Table 1): 91 ± 8 nM
- IC50 (Jurkat): > 2000 nM
- IC50 (Jurkat; Table 1, mean ± SE, 72 h): 2720 ± 130 nM
- IC50 (A549; Table 1, mean ± SE): 190 ± 20 nM
- IC50 (HT-29): 142 nM
- IC50 (HT-29; Table 1, mean ± SE, 72 h): 140 ± 11 nM
- Colchicine Binding % Inhibition ± SD (Bovine brain tubulin [4]): 55 ± 3%
Compound: COc1cc(Nc2cc(C)nc3nc(NCCCc4ccccc4)nn23)cc(OC)c1OC [Compound 7ad]
- IC50 (PBL stimulated with PHA): > 10000 nM
- ROS production (HeLa cells [6]): significantly increased ROS production in a dose-dependent manner
- Monomers (%) (monomeric JC-1) (HeLa cells [7]): 33.4%
- IC50 (quiescent PBLs): > 10000 nM
- cells arrested in the G2/M phase (HeLa cells [8]): more than 70%
- concentration at which G2/M arrest began (HeLa cells [8]): 25 nM
- EdU incorporation / cell proliferation (HeLa cells [9]): effective in reducing HeLa cell proliferation
- concentration from which apoptosis was induced (HeLa cells [10]): 50 nM

- IC50 ([1]; Homo sapiens, mean over the five cancer cell lines, read-out: mean IC50 (antiproliferative activity)): 101 nM
- IC50 (Bovine brain tubulin [3]; read-out: IC50 tubulin polymerization): 390 nM
- IC50 (Bovine brain tubulin [3]; [11]): 520 ± 60 nM
- melting point: 168 to 170 °C
- IC50 (HeLa; Homo sapiens, HeLa, Table 2, mean ± SE): 35 nM
- IC50 (MDA-MB-231; Homo sapiens, MDA-MB-231, Table 2): 98 ± 20 nM
- IC50 (Jurkat; Homo sapiens, Jurkat, Table 2, mean ± SE, 72 h): 230 ± 20 nM
- IC50 (A549; Homo sapiens, A549, Table 2, mean ± SE): 81 ± 2 nM
- IC50 (HT-29; Homo sapiens, HT-29, Table 2, mean ± SE, 72 h): 58 ± 10 nM
- Colchicine Binding % Inhibition ± SD (Bovine brain tubulin [4]): 87 ± 0.8%
Compound: Cc1cc(Nc2ccc(F)c(Cl)c2)n2nc(NCCCc3ccccc3)nc2n1 [Compound 8r, N^7-(3-Chloro-4-fluorophenyl)-5-methyl-N^2-(3-phenylpropyl)-[1,2,4]triazolo [1,5-a]pyrimidine-2,7-diamine]
- IC50 (PBL stimulated with PHA; Homo sapiens): > 10000 nM
- ROS production (HeLa cells [6]): significantly increased ROS production in a dose-dependent manner
- Monomers (%) (monomeric JC-1) (HeLa cells [7]): 16.6%
- fold more potent than CA-4, tubulin polymerization (Bovine brain tubulin [3]): about 2 fold
- IC50 (quiescent PBLs; Homo sapiens): > 10000 nM
- cells arrested in the G2/M phase (HeLa cells [8]): more than 70%
- concentration at which G2/M arrest began (HeLa cells [8]): 25 nM
- EdU incorporation / cell proliferation (HeLa cells [9]): effective in reducing HeLa cell proliferation
- concentration from which apoptosis was induced (HeLa cells [10]): 50 nM
